In patent publication US5318980A, “Sulphonylbenzyl-substituted imidazoles” (Bayer Aktiengesellschaft, priority 1992, dated 1994):

Tests used:
[1] = test system: isolated aortic rings of rabbits, contraction induced by AII; experiment: Inhibition of angiotensin II-induced contraction on isolated aortic rings of rabbits in vitro; type: cell-based, rabbit; conditions: Oryctolagus cuniculus, 3rd=submaximum agonist concentration, read-out: IC50 against contractions induced by AII
Procedure: Rabbits of both sexes are stunned by a blow to the neck and exsanguinated or, where appropriate, anaesthetised with Nembutal (about 60-80 mg/kg i.v.) and sacrificed by opening the thorax. The thoracic aorta is removed, freed from attached connective tissue and divided into ring segments 1.5 mm wide, and the segments are introduced individually, under an initial load of about 3.5 g, into 10 ml organ baths containing carbogen-gassed KrebsHenseleit nutrient solution thermostatically controlled at 37° C. and having the following composition: 119 mmol/l of NaCl; 2.5 mmol/l of CaCl2 ×2 H2 O; 1.2 mmol/l to KH2 PO4; 10 mmol/l of glucose; 4.8 mmol/l of KCl; 1.4 mmol/l of MgSO4 ×7 H2 O and 25 mmol/l of NaHCO3.
The contractions are recorded isometrically by Statham UC2 cells via a bridge amplifier (ifd Mulheim or DSM Aalen), and are digitalised and evaluated by means of an A/D converter (system 570, Keithley Munich). The agonist dose/effect curves (DEC) are plotted hourly. For each DEC, 3 or 4 individual concentrations are applied to the baths at intervals of 4 minutes. The DEC and subsequent wash-out cycles (16 times for about 5 sec/min each with the above nutrient solution) are followed by a 28-minute resting or incubation phase, within which the contractions as a rule reach the starting value again.
The level of the 3rd DEC in the normal case is used as a reference parameter for evaluating the test substance which is to be investigated in subsequent passes and, for the subsequent DECs, is applied to the baths at the start of the incubation time in a dosage which increases each time. Each aortic ring is stimulated with always the same agonist over the entire day.
Agonists and their standard concentrations (application
The effect in each case at the 3rd=submaximum agonist concentration is taken as a basis for calculation of the IC50 (concentration at which the substance to be investigated causes 50% inhibition).

Angiotensin II receptor = molecular target: T1, Angiotensin II receptor (Bos taurus, UniProt P25104); experiment: Interaction with the angiotensin II receptor on membrane fractions of the adrenal cortex (cattle), 3H-angiotensin II bonding; type: binding; conditions: bovine adrenal cortex membranes; 3H-angiotensin II (3-5 nM); 60 minutes at room temperature
T1 construct: carried out on partly purified membrane fractions of bovine AC with radioactive angiotensin II; from tissue; host or cells: bovine adrenal cortex, freed from medulla, partly purified membrane fractions
T1 sequence (P25104 1-359): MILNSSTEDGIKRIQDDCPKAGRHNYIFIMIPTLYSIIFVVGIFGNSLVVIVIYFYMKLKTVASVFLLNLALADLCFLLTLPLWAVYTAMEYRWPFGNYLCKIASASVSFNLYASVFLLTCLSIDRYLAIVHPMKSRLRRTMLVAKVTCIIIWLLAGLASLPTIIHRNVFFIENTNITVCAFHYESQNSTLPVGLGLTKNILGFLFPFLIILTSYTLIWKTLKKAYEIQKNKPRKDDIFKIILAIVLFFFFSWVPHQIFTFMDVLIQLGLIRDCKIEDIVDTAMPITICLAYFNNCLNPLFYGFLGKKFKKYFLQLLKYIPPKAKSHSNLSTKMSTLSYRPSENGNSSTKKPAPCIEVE
Procedure: Adrenal cortices from cattle (AC), which are freshly removed and carefully freed from medulla from the capsule, are comminuted to a coarse membrane homogenate in sucrose solution (0.32M) with the aid of an Ultra-Turrax (Janke & Kunkel, Staufen i.B.), and the homogenate is partly purified to membrane fractions in two centrifugation steps.
The investigations on receptor bonding are carried out on partly purified membrane fractions of bovine AC with radioactive angiotensin II in an assay volume of 0.25 ml, which specifically contains the partly purified membranes (50-80 μg), ^3 H-angiotensin II (3-5 nM), test buffer solution (50 mM Tris, pH 7.2), 5 mM MgCl2 and the substances to be investigated. After an incubation time of 60 minutes at room temperature, the non-bonded radioactivity of the samples is separated off by means of moistened glass fibre filters (Whatman GF/C), and, after the protein has been washed with ice-cold buffer solution (50 mM Tris/HCl, pH 7.4, 5% PEG 6000), the radioactivity bonded is measured […] in a scintillation cocktail. The raw data were analysed with computer programs to give Ki and IC50 values (Ki : IC50 values corrected for the radioactivity used; IC50 values: concentration at which the substance to be investigated causes 50% inhibition of specific bonding of the radioligand).

smooth muscle cells = experiment: Inhibition of the proliferation of smooth muscle cells (3H-thymidine incorporation); type: cell-based, rats or pigs; conditions: at 10^-6 M (so in the source); growth stimulated with AII, serum or other factors
Procedure: Smooth muscle cells which are obtained from the aortas of rats or pigs by the media explantate technique are used to determine the antiproliferative action of the compounds [R. Ross, J. Cell. Biol. 50, 172, 1971]. The cells are sown in suitable culture dishes, as a rule 24-hole plates, and cultured for 2-3 days in medium 199 containing 7.5% of FCS and 7.5% of NCS, 2 mM of L-glutamine and 15 mM of HEPES, pH 7.4, in 5% CO2 at 37° C. Thereafter, the cells are synchronised by serum withdrawal for 2-3 days and then stimulated to growth with AII, serum or other factors. Test compounds are added at the same time. After 16-20 hours, 1 μCi of ^3 H-thymidine is added, and after a further 4 hours, the incorporation of this substance into the TCA-precipitatable DNA of the cells is determined.

SMILES | IC50 [1] [nM] | Ki (Angiotensin II receptor) [nM] | % inhibition at 10^6 M (smooth muscle cells) [%]
CCCCc1nc(Cl)c(C(=O)O)n1Cc1ccc(S(=O)(=O)N2CCC[C@H]2C(=O)O)cc1 [Example 15] | 202 | 400 | 
CCCCc1nc(Cl)c(CO)n1Cc1ccc(S(=O)(=O)N2CCC[C@H]2C(=O)OC(C)(C)C)cc1Cl [Example 12] |  |  | 70
CCCCc1nc(Cl)c(C(=O)O)n1Cc1ccc(S(=O)(=O)N2CCCCC2C(=O)O)cc1Cl (stereo not drawn) [Example 16] | 309 |  | 
CCCCc1nc(Cl)c(C(=O)O)n1Cc1ccc(S(=O)(=O)N2CCCCC2C(=O)OC(C)(C)C)cc1Cl (stereo not drawn) [Example 18] |  | 200 | 
CCCCc1nc(Cl)c(CO)n1Cc1ccc(S(=O)(=O)N2CCCCC2)cc1 [Example 11] |  |  | 20

Second part, led by results:

IC50 [1] [nM] | Ki (Angiotensin II receptor) [nM] | SMILES | % inhibition at 10^6 M (smooth muscle cells) [%]
250 |  | CCCCc1nc(Cl)c(CO)n1Cc1ccc(S(=O)(=O)N2CCC[C@H]2C(=O)O)cc1 [Example 21] | 
5 |  | CCCCc1nc(Cl)c(C(=O)O)n1Cc1ccc(S(=O)(=O)N2CCCCC2C(=O)O)cc1 (stereo not drawn) [Example 25] | 
44 |  | CCCCc1nc(Cl)c(CO)n1Cc1ccc(S(=O)(=O)N2CCC[C@H]2C(=O)O)cc1Cl [Example 19] | 
